Data: publication PMC10012172, “Chimeric Peptidomimetic Antibiotic Efficiently Neutralizes Lipopolysaccharides (LPS) and Bacteria-Induced Activation of RAW Macrophages” (ACS Infectious Diseases, 2023)
≈ marks a conversion by molar mass, not a printed value. Where a SMILES comes first, the peptide text is derived from it. Bridges are numbered along the chain shown (N, C = ends). Roman numbers before positions name the chains, in order. [ ]: non-standard residue; d: D form. Tle = CC(C)(C)[C@H](N)C(=O)O; dDab = NCC[C@@H](N)C(=O)O; hSer = N[C@@H](CCO)C(=O)O; Dab = NCC[C@H](N)C(=O)O

Key:
[1] = test system: E. coli O111:B4 LPS stimulated RAW264.7 macrophages; experiment: IL-10 release ELISA in LPS stimulated macrophages; format: cell-based; conditions: 20 ng/mL E. coli O111:B4 LPS, 24 h
Experimental: (§1) Figure 4 Peptides modulation of cytokine expression in RAW264.7 cells stimulated with LPS. RAW macrophages were stimulated with 20 ng/mL E. coli LPS in the presence of different concentrations of peptide antibiotics. (A) TNF-α and (B) IL-10 release was measured by ELISA in duplicates. Shown are the mean ± SEM of three independent experiments.
(§2) RAW264.7 cells were seeded (5 × 10^4 cells/well) in a 96-well plate and left at 37 °C for overnight adherence. Then, cells were stimulated with […] types of LPS: 20 ng/mL LPS originating from E. coli O111:B4 (LPS-EB, InvivoGen), 50 ng/mL LPS from P. aeruginosa (PA-10 LPS, Sigma -Aldrich), and 5 ng/mL LPS from E. coli K-12 (LPS-EK, InvivoGen) in the presence of 0–5 μM peptides in DMEM for 24 h. After incubation, the nitrite content (corresponding to nitric oxide produced but quickly oxidized in watery solutions to nitrite) in the supernatant was measured using the Griess assay.[28]
(§3) A sandwich ELISA was used to measure TNF-α and IL-10 concentrations in the supernatant of the same treatment (24 h) used for nitrite measurement, using ELISA Duoset kits (R&D systems, Minneapolis, MN) according to the manufacturer’s protocol.

[2] = test system: E. coli O111:B4 LPS stimulated RAW264.7 macrophages; experiment: Nitric oxide inhibition assay (Griess), E. coli O111:B4 LPS; format: cell-based; conditions: 0–5 μM peptide
Experimental: (§4) Figure 3 Nitric oxide inhibition in LPS stimulated RAW264.7 by peptide antibiotics. RAW264.7 cells were stimulated with smooth type LPSs (A) E. coli O111:B4 LPS and (B) P. aeruginosa LPS and rough type LPS (C) E. coli K-12 LPS in the presence of different concentrations of peptides: CPA, murepavadin, MHM, PMB, and PMBN. NO production was measured by Griess assay. Shown are the mean ± SEM of three independent experiments. (D) Schematic diagram of the general structure of lipopolysaccharides. It consists of three main subunits: lipid A, the core region, and the O-antigen. Lipid A and the core-region form rough (R)-type LPS. Lipid A, the core-region, and the O-antigen together form smooth (S)-type LPS.
as §2

[3] = test system: Escherichia coli (clinical isolate); format: cell-based
Experimental: (§5) Figure 2 Determination of MBC values for (A) E. coli and (B) P. aeruginosa. Surviving bacterial colonies were detected after incubation with tested peptides for 3 h in MHB.
(§6) Bacterial strains used in this study were clinical isolates of Escherichia coli and Pseudomonas aeruginosa provided by Utrecht University Medical Center, Department of Medical Microbiology, Utrecht, The Netherlands. Both strains were cultured in Mueller Hinton broth (MHB) (Millipore, Sigma-Aldrich).
(§7) Logarithmic growth phase of an o/n bacterial culture was obtained by diluting it 1:100 in MHB and then incubating it for 3 h at 37 °C while shaking. After that, the OD620 of the bacterial suspension was measured and the bacterial solution was diluted to 2 × 10^6 colony forming units/mL (CFU/mL). Bacteria and peptides in MHB were mixed 1:1 (v/v) and incubated for 3 h at 37 °C in a polypropylene round-bottom 96 well-plate (Corning Costar, Glendale, AZ). Subsequently, 10-fold dilutions were made and plated out on Tryptone Soy Agar (TSA) plates and incubated for 24 h at 37 °C to count colonies.

[4] = test system: Pseudomonas aeruginosa (clinical isolate); format: cell-based; conditions: 3 h
Experimental: as §5, §6, §7

[5] = test system: RAW264.7 macrophages stimulated with treated P. aeruginosa; experiment: Silent killing: stimulation of macrophages with nonviable bacteria (TNF-α ELISA); format: cell-based; conditions: bacteria 1 × 10^6 CFU/mL treated with 20 μM peptide 1 h at 37 °C, RAW264.7 2 h, three independent experiments
Experimental: Figure 7 (A) Determination of macrophage activation in response to viable and nonviable bacteria. P. aeruginosa was treated with gentamicin, heat treatment, CATH-2 (control), CPA, murepavadin, MHM, PMB, or PMBN (20 μM of each) and subsequently added to RAW264.7 macrophages. Production of TNF-α was measured using ELISA after 2 h of treatment. (B) Viability of P. aeruginosa after treatment was checked by plating on TSA plates. Data is plotted as the mean ± SEM of three independent experiments. Significant differences were determined by ordinary one-way ANOVA (Tukey’s multiple comparison test).
RAW264.7 cells were seeded (7.5 × 10^4 cells/well) as described above. P. aeruginosa (diluted to 1 × 10^6 CFU/mL in DMEM) was treated separately with heat (1 h at 90 °C), 1 mg/mL gentamicin (1 h at 37 °C), 20 μM CPA (1 h at 37 °C), 20 μM PMB (1 h at 37 °C), 20 μM murepavadin (1 h at 37 °C), 20 μM MHM (1 h at 37 °C), 20 μM CATH-2 (1 h at 37 °C), and DMEM only (untreated sample) (1 h at 4 °C). After treatment, the bacteria were added to the RAW264.7 cells for 2 h of incubation at 37 °C. After that, TNF-α production was determined in the supernatant by ELISA.

E. coli O111:B4 LPS = experiment: Isothermal titration calorimetry (ITC) of LPS binding; conditions: 30 μM peptide, 200 μM LPS in 50% PBS, 37 °C, representative of two measurements
Experimental: Figure 6 (A) Binding profile of LPS and the peptides using ITC. Binding signatures (ΔG, ΔH. and −TΔS) plotted for binding events of LPS with peptides. (B) Spectra of the interaction between LPS and peptides. Murepavadin, PMB, MHM, PMBN, and CPA (30 μM) were titrated against 200 μM E. coli O111:B4 LPS, and heat rates were recorded. Shown is a representative of two measurements.
ITC measurements were performed in a low volume NanoITC (TA Instruments-Waters LLC, New Castle, DE). Two hundred micromolar LPS (from E. coli O111:B4) was prepared in 50% PBS. Peptides of 30 μM concentration were prepared in identical buffer. Three hundred microliters of the peptide solution was added to the chamber (chamber volume is 169 μL, so the rest of the volume flows out and rests around the chamber), and 50 μL of LPS was added to the syringe. At 37 °C, 2 μL of LPS solution was injected into the chamber every 300 s, except the first injection, which consists of 0.96 μL. The experiments were performed at 37 °C while stirring at 300 rpm. The data was analyzed with the NanoAnalyze Software (TA Instruments, Asse, Belgium).

[6] = test system: E. coli O111:B4 LPS stimulated RAW264.7 macrophages; experiment: TNF-α release ELISA in LPS stimulated macrophages; format: cell-based; conditions: 20 ng/mL E. coli O111:B4 LPS, 24 h
Experimental: as §1, §2, §3

[7] = test system: P. aeruginosa 10 LPS stimulated RAW264.7 macrophages; experiment: Nitric oxide inhibition assay (Griess), P. aeruginosa 10 LPS; format: cell-based; conditions: 0–5 μM peptide
Experimental: as §4, §2

[8] = test system: E. coli K-12 LPS stimulated RAW264.7 macrophages; experiment: Nitric oxide inhibition assay (Griess), E. coli K-12 LPS; format: cell-based; conditions: 0–5 μM peptide
Experimental: as §4, §2

Structure (SMILES): CC(C)C[C@@H]1NC(=O)[C@@H](Cc2ccccc2)NC(=O)[C@H](CCN)NC(=O)[C@@H](NC(=O)[C@H](CCN)NC(=O)[C@@H](NC(=O)[C@H](CCN)NC(=O)CC[C@@H]2NC(=O)[C@H](CCN)NC(=O)[C@H](Cc3ccc(O)cc3)NC(=O)[C@H]([C@@H](C)O)NC(=O)[C@H](C(C)C)NC(=O)[C@@H]3CCCN3C(=O)[C@@H](C)NC(=O)[C@H](CO)NC(=O)[C@H](C)NC(=O)[C@H](C(C)(C)C)NC(=O)[C@H](CCO)NC(=O)[C@H](Cc3c[nH]c4ccccc34)NC(=O)[C@H](CCO)NC(=O)[C@@H](CCN)NC2=O)[C@@H](C)O)CCNC(=O)[C@H]([C@@H](C)O)NC(=O)[C@H](CCN)NC(=O)[C@H](CCN)NC1=O [CPA] (I: cyclo([dDab][hSer]W[hSer][Tle]AS[dA]PVTY[Dab]E) / II: [Dab]T[Dab][Dab][Dab][dF]L[Dab][Dab]T; amide I:14-II:N (inferred); lactam II:4-II:C (inferred); ring closure inferred)
- inhibition of IL-10 release (in words) [1]: sharply decreased the TNF-α and IL-10 release by RAW264.7 macrophages at a concentration of 5 nM
- concentration that completely neutralized E. coli O111:B4 LPS (nitric oxide production) ([2]; 20 ng/mL LPS, 24 h in DMEM, Griess assay): 20 nM
- inhibition of LPS-induced nitric oxide production (in words) ([2]; smooth E. coli O111:B4 LPS 20 ng/mL, 24 h): dose-dependently active
- decrease in viable E. coli ([3]; at 1.25 μM peptide, from starting density of 10^6 CFU/mL, 3 h in MHB): 2 log
- MBC (complete killing) against E. coli ([3]; clinical isolate, 3 h): 10 µM (≈ 25.7 µg/mL)
- MBC (complete killing) against P. aeruginosa [4]: 2.5 µM (≈ 6.41 µg/mL)
- macrophage activation (TNF-α) by peptide-treated P. aeruginosa compared to viable untreated bacteria [5]: significantly reduced immune response
- Kd (E. coli O111:B4 LPS): 7.8 µM
- inhibition of TNF-α release (in words) [6]: sharply decreased the TNF-α and IL-10 release by RAW264.7 macrophages at a concentration of 5 nM
- concentration that almost completely neutralized P. aeruginosa 10 LPS (nitric oxide production) ([7]; 50 ng/mL LPS, 24 h in DMEM, Griess assay): 20 nM
- inhibition of LPS-induced nitric oxide production (in words) ([7]; smooth P. aeruginosa 10 LPS 50 ng/mL, 24 h): dose-dependently active
- concentration that neutralized E. coli K-12 LPS (nitric oxide production) ([8]; 5 ng/mL rough LPS, 24 h in DMEM, Griess assay): 5 µM
- inhibition of LPS-induced nitric oxide production (in words) ([8]; rough E. coli K-12 LPS 5 ng/mL, 24 h): dose-dependently active
